According to patent US20100286081A1, “5-AMINO-3-(2',3'-DI-O-ACETYL-BETA-D-RIBOFURANOSYL)-3H-THIAZOLO[4,5-D] PYRIMIDIN-2-OCE SALTS AND CRYSTALLINE FORMS” (Anadys Pharmaceuticals Inc., priority 2006, published 2010):

Experiments:
[1] = Water sorption curve (DVS analysis at 25° C.); format: physicochemical; settings: for Weight change in %: DVS analysis at 25° C.
Description: Water Sorption Curve of 5-amino-3-(2′,3′-di-O-acetyl-beta-D-ribofuranosyl)-3H-thiazolo[4,5-d]pyrimidin-2-one Amorphous Base (FIG. 6)
Water Sorption Curve of 5-amino-3-(2′,3′-di-O-acetyl-beta-D-ribofuranosyl)-3H-thiazolo[4,5-d]pyrimidin-2-one Maleate Salt (FIG. 7)

[2] = Stability of polymorphic form; format: physicochemical

Hygroscopicity (in words) [1]	Weight change in % ([1]; 0-20% r.h.)	Weight change in % ([1]; 0-40% r.h.)	Weight change in % ([1]; 0-60% r.h.)	Weight change in % ([1]; 0-80% r.h.)	Weight change in % ([1]; 0-95% r.h.)	Stability of polymorphic form (in words) [2]	SMILES
hygroscopic	0.50%	0.86%	1.55%	3.07%	4.68%	–	CC(=O)O[C@@H]1[C@H](OC(C)=O)[C@@H](CO)O[C@H]1n1c(=O)sc2cnc(N)nc21 [5-Amino-3-(2′,3′-di-O-acetyl-beta-D-ribofuranosyl)-3H-thiazolo[4,5-d]pyrimidin-2-one]
–	0.08%	0.17%	0.23%	0.32%	0.31%	–	CC(=O)O[C@@H]1[C@H](OC(C)=O)[C@@H](CO)O[C@H]1n1c(=O)sc2cnc(N)nc21.O=C(O)/C=C\C(=O)O [5-amino-3-(2′,3′-di-O-acetyl-beta-D-ribofuranosyl)-3H-thiazolo[4,5-d]pyrimidin-2-one maleate]
–	–	–	–	–	–	particularly stable polymorphic form	CC(=O)O[C@@H]1[C@H](OC(C)=O)[C@@H](CO)O[C@H]1n1c(=O)sc2cnc(N)nc21.O=C(O)/C=C\C(=O)O [Form B, 5-Amino-3-(2′,3′-di-O-acetyl-beta-D-ribofuranosyl)-3H-thiazolo[4,5-d]pyrimidin-2-one maleate]
